The record followed here is PMC8151143.

SMILES strings stand for the structures.

This experiment has as its target T1, rPtCLec2 (PtCLec2) (Portunus trituberculatus, UniProt A0A7S5QMV0).
T1 construct: gene CLec2; mature peptide (signal peptide residues 1-19 removed) in pET-32a, N-terminal Trx and His tags kept, about 50 kDa; single CRD with QPD motif
T1 sequence (A0A7S5QMV0 20-267): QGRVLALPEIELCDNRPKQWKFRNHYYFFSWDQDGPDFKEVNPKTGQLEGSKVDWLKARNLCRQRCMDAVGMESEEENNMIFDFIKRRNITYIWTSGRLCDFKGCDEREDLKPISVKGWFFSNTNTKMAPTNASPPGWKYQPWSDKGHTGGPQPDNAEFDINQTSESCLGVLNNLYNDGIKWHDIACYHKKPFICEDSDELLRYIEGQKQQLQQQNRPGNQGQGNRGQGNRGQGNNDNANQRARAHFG
Briefly: inhibition of agglutination of FITC-labelled Pseudomonas aeruginosa, fluorescence microscopy. In kind it is binding. The conditions noted are these: 10 mM CaCl2; 25-200 mM sugar tested; rPtCLec2 100 ug/mL; 30 min preincubation; indirect (competition) read-out.

As to `OC[C@H]1OC(O)[C@H](O)[C@@H](O)[C@H]1O` (stereo partly drawn) [D-galactose], the “minimum concentration of carbohydrate that could completely inhibit bacterial agglutinating activity” value was “inhibited with the increasing concentration of LPS, D-galactose, and D-mannose”.
With `OC[C@H]1OC(O)[C@@H](O)[C@@H](O)[C@@H]1O` (stereo partly drawn) [D-mannose] the entry was “inhibited with the increasing concentration of LPS, D-galactose, and D-mannose”.
